Experiment in all cases: Postemergence herbicidal activity
Common to all, as to format: in vivo

Experiment [1] deals with lambsquarter (Chenopodium album). Particulars: post-emergent, after 14 days; for % Control CHEAL / pest or weed control at 140 g/ha: 140 g ai/ha. The method, then: (§1) Seeds or nutlets of the desired test plant species were planted in Sun Gro MetroMix® 306 planting mixture, which typically has a pH of 6.0 to 6.8 and an organic matter content of about 30 percent, in plastic pots with a surface area of 64 square centimeters. When required to ensure good germination and healthy plants, a fungicide treatment and/or other chemical or physical treatment was applied. The plants were grown for 7-21 days in a greenhouse with an approximate 15 hour photoperiod which was maintained at about 23-29° C. during the day and 22-28° C. during the night. Nutrients and water were added on a regular basis and supplemental lighting was provided with overhead metal halide 1000-Watt lamps as necessary. The plants were employed for testing when they reached the first or second true leaf stage. […] The concentrated stock solutions obtained were diluted with 20 mL of an aqueous mixture containing acetone, water, isopropyl alcohol, DMSO, Atplus 411F crop oil concentrate, and Triton® X-155 surfactant in a 48.5:39:10:1.5:1.0:0.02 v/v ratio to obtain spray solutions containing the highest application rates. […] Compound requirements are based upon a 12 mL application volume at a rate of 187 L/ha. Formulated compounds were applied to the plant material with an overhead Mandel track sprayer equipped with a […] nozzles calibrated to deliver 187 L/ha over an application area of 0.503 square meters at a spray height of 18 inches (43 cm) above the average plant canopy height. Control plants were sprayed in the same manner with the solvent blank. The treated plants and control plants were placed in a greenhouse as described above and watered by sub-irrigation to prevent wash-off of the test compounds. […] By applying the well-accepted probit analysis as described by J. Berkson in Journal of the American Statistical […], 48, 565 (1953) and by D.

The subject of experiment [2] is redroot pigweed (Amaranthus retroflexus). To be noted: post-emergent, after 14 days; for % Control AMARE / pest or weed control at 140 g/ha: 140 g ai/ha. The method, then: as §1
Experiment [3] has as its system velvetleaf (Abutilon theophrasti). Particulars: post-emergent, after 14 days; for % Control ABUTH / pest or weed control at 140 g/ha: 140 g ai/ha. The method, then: as §1
[4] abbreviates: Chenopodium album, post-emergence, 336 h, read-out: % Control CHEAL.
The mark [5] stands for this setting: Amaranthus retroflexus, post-emergence, 336 h, read-out: % Control AMARE.
Where [6] appears, read: Abutilon theophrasti, post-emergence, 336 h, read-out: % Control ABUTH.

As for “4-Amino-3-chloro-(2-chloro-4-difluoromethyl-6-fluoro-3-methoxy-phenyl)pyridine-2-carboxylic acid, methyl ester [Compound 53]”, the “% Control CHEAL” value in experiment [1] is 95%. In experiment [2], the “% Control AMARE” value was 80%. In experiment [3], the “% Control ABUTH” value is reported as 70%.

With `COC(=O)c1nc(-c2ccc(C#N)c(OC)c2F)cc(N)c1Cl` [Compound 6, 4-Amino-3-chloro-6-(4-cyano-2-fluoro-3-methoxyphenyl)pyridine-2-carboxylic acid methyl ester], the values for the pest or weed control at 140 g/ha in experiment [1] (setting [4]), in experiment [2] (setting [5]) and in experiment [3] (setting [6]) were 95%, 100% and 90%, respectively.

As to `COC(=O)c1nc(-c2ccc(Cl)c(C(C)(C)F)c2F)cc(N)c1Cl` [Compound 25, 4-Amino-3-chloro-6-[4-chloro-2-fluoro-3-(1-fluoro-1-methylethyl)phenyl]-pyridine-2-carboxlic acid, methyl ester], the “% Control CHEAL” value in experiment [1] came out at 100%. Moreover, the “% Control AMARE” value in experiment [2] was 100%. In addition, the “% Control ABUTH” value in experiment [3] turned out to be 100%.

Consider `COC(=O)c1nc(-c2ccc(F)c(OC)c2F)cc(NC(C)=O)c1Cl` [Compound 28, 4-Acetylamino-3-chloro-(2,4-difluoro-3-methoxyphenyl)pyridine-2-carboxylic acid, methyl ester], for which the “% Control CHEAL” value in experiment [1] is given as 95%. The “% Control AMARE” value in experiment [2] was found to be 100%. For the same compound, the “% Control ABUTH” value in experiment [3] was determined as 100%.

For `COC(=O)c1nc(-c2ccc(F)c(OC)c2Cl)cc(NC(C)=O)c1Cl` [Compound 29, 4-Acetylamino-3-chloro-(2-chloro-4-fluoro-3-methoxyphenyl)pyridine-2-carboxylic acid, methyl ester], in experiment [1], the “% Control CHEAL” value is given as 98%. For the same compound, the “% Control AMARE” value in experiment [2] stood at 40%. The “% Control ABUTH” value in experiment [3] stood at 95%.

As to `CCC(F)c1c(Cl)ccc(-c2cc(NC(C)=O)c(Cl)c(C(=O)OC)n2)c1F` (stereo not drawn) [Compound 32, 4-Acetylamino-3-chloro-6-[4-chloro-2-fluoro-3-(1-fluoropropyl)-phenyl]pyridine-2-carboxylic acid, methyl ester], the pest or weed control at 140 g/ha amounted to 50% in experiment [1] (setting [4]), 80% in experiment [2] (setting [5]) and 60% in experiment [3] (setting [6]).

Consider `COC(=O)c1nc(-c2ccc(Cl)c(N(C)C)c2Cl)cc(N)c1Cl` [Compound 37, 4-Amino-3-chloro-6-[2,4-dichloro-3-(dimethylamino)phenyl]pyridine-2-carboxylic acid, methyl ester], for which the pest or weed control at 140 g/ha in experiment [1] (setting [4]), in experiment [2] (setting [5]) and in experiment [3] (setting [6]) was 100% in each case.

For `COC(=O)c1nc(-c2ccc(Cl)c(C(=O)OC)c2F)cc(N)c1Cl` [Compound 39, 4-Amino-3-chloro-6-[4-chloro-2-fluoro-3-(methoxycarbonyl)phenyl]pyridine-2-carboxyic acid, methyl ester], in experiment [1], the “% Control CHEAL” value came to 95%. Besides, in experiment [2], the “% Control AMARE” value is on record as 75%. In experiment [3], the “% Control ABUTH” value is reported as 90%.

Turning to `COC(=O)c1nc(-c2ccc(Cl)c(C)c2Cl)cc(N)c1Cl` [Compound 48, 4-Amino-3-chloro-6-(2,4-dichloro-3-methylphenyl)pyridine-2-carboxylic acid methyl ester], the pest or weed control at 101 g/ha in experiment [1] (Chenopodium album, post-emergence, 336 h, 101 g ai/ha, read-out: % Control CHEAL) amounted to 85%; in experiment [2] (Amaranthus retroflexus, post-emergence, 336 h, 101 g ai/ha, read-out: % Control AMARE) it was 80%; in experiment [3] (Abutilon theophrasti, post-emergence, 336 h, 101 g ai/ha, read-out: % Control ABUTH), 98%.

Regarding `COC(=O)c1nc(-c2c(F)cc(Cl)c(C(F)F)c2F)cc(N)c1Cl` [Compound 54, 4-Amino-3-chloro-6-(4-chloro-3-difluoromethyl-2,6-difluorophenyl)pyridine-2-carboxylic acid, methyl ester], the pest or weed control at 140 g/ha in experiment [1] (setting [4]), in experiment [2] (setting [5]) and in experiment [3] (setting [6]) was 100% each time.

Take `COC(=O)c1nc(-c2c(F)cc(F)c(OC)c2Cl)cc(N)c1Cl` [Compound 55, 4-Amino-3-chloro-(2-chloro-4,6-difluoro-3-methoxyphenyl)pyridine-2-carboxylic acid, methyl ester]: in experiment [1], the “% Control CHEAL” value is on record as 90%. Moreover, the “% Control AMARE” value in experiment [2] is reported as 100%. For the same compound, in experiment [3], the “% Control ABUTH” value is 100%.

Turning to `COC(=O)c1nc(-c2c(F)cc(Cl)c(OC)c2Cl)cc(N)c1Cl` [Compound 57, 4-Amino-3-chloro-6-(2,4-dichloro-6-fluoro-3-methoxyphenyl)pyridine-2-carboxylic acid, methyl ester], the pest or weed control at 140 g/ha in experiment [1] (setting [4]), in experiment [2] (setting [5]) and in experiment [3] (setting [6]) was 100% each time.

Take `CCCCOc1c(Cl)ccc(-c2cc(N)c(Cl)c(C(=O)OC)n2)c1F` [Compound 60, 4-Amino-3-chloro-6-(4-chloro-3-butoxy-2-fluorophenyl)pyridine-2-carboxylic acid, methyl ester]: the results for the pest or weed control at 140 g/ha in experiment [1] (setting [4]), in experiment [2] (setting [5]) and in experiment [3] (setting [6]) were 90%, 90% and 55%, respectively.

On to `CCC(F)c1c(Cl)ccc(-c2cc(N)c(Cl)c(C(=O)OC)n2)c1F` (stereo not drawn) [Compound 66, 4-Amino-3-chloro-6-[4-chloro-2-fluoro-3-(1-fluoropropyl)phenyl]pyridine-2-carboxylic acid, methyl ester], for which the “% Control CHEAL” value in experiment [1] is listed as 95%. Moreover, the “% Control AMARE” value in experiment [2] stood at 100%. The “% Control ABUTH” value in experiment [3] is 90%.

In the case of `COC(=O)c1nc(-c2ccc(CF)c(OC)c2F)cc(N)c1Cl` [Compound 72, 4-Amino-3-chloro-6-(2-fluoro-4-fluoromethyl-3-methoxyphenyl)pyridine-2-carboxylic acid, methyl ester], the pest or weed control at 140 g/ha in experiment [1] (setting [4]) came out at 80%; in experiment [2] (setting [5]), 20%; in experiment [3] (setting [6]), 100%.

As to `COC(=O)c1nc(-c2c(F)cc(Cl)c(C)c2F)cc(N)c1Cl` [Compound 75, 4-Amino-3-chloro-6-(4-chloro-2,6-difluoro-3-methylphenyl)pyridine-2-carboxylic acid, methyl ester], the pest or weed control at 140 g/ha in experiment [1] (setting [4]) is 95%; in experiment [2] (setting [5]) it was 95%; in experiment [3] (setting [6]), 100%.

In the case of `COC(=O)c1nc(-c2ccc(Cl)c(OC)c2Br)cc(N)c1Cl` [Compound 76, 4-Amino-6-(2-bromo-4-chloro-3-methoxyphenyl)-3-chloropyridine-2-carboxylic acid, methyl ester], the pest or weed control at 140 g/ha in experiment [1] (setting [4]), in experiment [2] (setting [5]) and in experiment [3] (setting [6]) was 100% in each case.

Regarding `COC(=O)c1nc(-c2c(F)cc(F)c(C(F)F)c2F)cc(N)c1Cl` [Compound 78, 4-Amino-3-chloro-6-(3-difluoromethyl-2,4,6-trifluorophenyl)pyridine-2-carboxylic acid, methyl ester], the pest or weed control at 140 g/ha worked out at 100% in experiment [1] (setting [4]), 100% in experiment [2] (setting [5]) and 90% in experiment [3] (setting [6]).

As for `COC(=O)c1nc(-c2ccc(Cl)c([S+](C)[O-])c2F)cc(N)c1Cl` (stereo not drawn) [Compound 83, 4-amino-3-chloro-6-(4-chloro-2-fluoro-3-methanesulfinyl-phenyl)pyridine-2-carboxylic acid methyl ester], the pest or weed control at 140 g/ha in experiment [1] (setting [4]) was determined as 85%; in experiment [2] (setting [5]), 85%; in experiment [3] (setting [6]), 90%.

As to `COC(=O)c1nc(-c2ccc(Cl)c(S(C)(=O)=O)c2F)cc(N)c1Cl` [Compound 84, 4-amino-3-chloro-6-(4-chloro-2-fluoro-3-methanesulfonylphenyl)pyridine-2-carboxylic acid methyl ester], the pest or weed control at 140 g/ha in experiment [1] (setting [4]) worked out at 70%; in experiment [2] (setting [5]), 75%; in experiment [3] (setting [6]) it was 80%.

For `Cc1c(F)ccc(-c2cc(N)c(Cl)c(C(=O)O)n2)c1F` [Compound 97, 4-Amino-3-chloro-(2,4-difluoro-3-methylphenyl)pyridine-2-carboxylic acid], the “% Control CHEAL” value in experiment [1] was found to be 80%. Besides, in experiment [2], the “% Control AMARE” value amounted to 85%. Besides, the “% Control ABUTH” value in experiment [3] is on record as 65%.

In the case of `Nc1cc(-c2ccc(Cl)c(CF)c2F)nc(C(=O)O)c1Cl` [Compound 114, 4-Amino-3-chloro-6-(4-chloro-2-fluoro-3-fluoromethylphenyl)pyridine-2-carboxylic acid], the pest or weed control at 140 g/ha was 95% in experiment [1] (setting [4]), 85% in experiment [2] (setting [5]) and 95% in experiment [3] (setting [6]).

The values are drawn from patent US20070179060A1, “6-(Poly-substituted aryl)-4-aminopicolinates and their use as herbicides” (priority 2006, published 2007).
